Measurements from US20190209472A1, “FORMULATIONS FOR DERMAL DELIVERY OF POLYMER CONJUGATES OF INDOLOCARBAZOLE COMPOUNDS WITH REDUCED EXPOSURE” (Sienna Biopharmaceuticals, Inc., priority 2017, published 2019).

Assays:
[1] = Phase 1b maximal use study: plasma pharmacokinetics of SNA-120; type: in vivo, human; conditions: any post-baseline timepoint; no detectable levels
Procedure: This is a multicenter, open-label, Phase 1b study designed to evaluate the PK with maximal use of 0.5% w/w SNA-120 ointment (see Table 1), as measured by circulating plasma levels of SNA-120 in men and women aged ≥18 years who have at least moderate (e.g., moderate to severe) pruritus associated with at least moderate (e.g., moderate to severe) psoriasis vulgaris (PV) covering at least 20% body surface area (BSA). SNA-120 was evaluated as a topical, non-steroidal ointment to treat itch (pruritus) associated with psoriasis. SNA-120 was designed to achieve high local drug concentration in the target tissue while minimizing systemic exposure for patients. SNA-120 directly targets the peripheral itch pathway in the psoriatic plaque.
Approximately 30 eligible subjects will receive 0.5% w/w SNA-120 ointment (2 mg/cm^2) proportional to approximately 35 mg active drug at each application for a subject with at least 20% BSA affected, administered twice daily over 4 weeks to the indicated areas in the Treatment Area. […]
Pharmacokinetics—Blood: Serial blood draws for PK analysis will be obtained approximately the same time of day for Study Days 1 and 29. […] On Days 1 and 29, blood draws will be collected after each nominal ECG extraction time point; the actual times of collection will be recorded in the eCRF. […]

[2] = Validation of HPLC methods (SNA-120 assay and related substances, benzyl alcohol); conditions: benzyl alcohol in ointment sample solutions stored at ambient conditions
From the text: An HPLC method was developed for the detection of assay and related substances of SNA-120 drug product and placebo. The following method validation parameters were challenged: specificity; linearity; accuracy; precision (system and repeatability); range; stability of test solutions; limit of detection and quantitation; system suitability.
An HPLC method was developed for the detection of Benzyl Alcohol in SNA-120 drug product and placebo. The following method validation parameters were challenged: specificity; linearity; accuracy; precision (system and repeatability); range; stability of test solutions; system suitability.

| Structure (SMILES) | Plasma levels of K252b [1] | Stability of test solutions: samples stable for up to [2] |
| --- | --- | --- |
| C[C@]12O[C@H](C[C@]1(O)C(=O)O)n1c3ccccc3c3c4c(c5c6ccccc6n2c5c31)CNC4=O [Lot K252b] | < 0.250 ng/mL |  |
| OCc1ccccc1 [benzyl alcohol] |  | ambient conditions. Samples are stable for up to 2 days |
